Assay results as given in ChEMBL document CHEMBL1949642 (Bioorg Med Chem Lett, 2012).
Converted amounts (≈) assume the structure as drawn. One block for each compound: values may come before it. The source made the active and inactive calls. The calls are words filed in the database; no cut-off is given here.

Columns and labels:
[1] = Intrinsic clearance in human liver microsomes; conditions: liver microsomes
[2] = biological target: T1, C-C chemokine receptor type 5 (Homo sapiens, UniProt P51681); experiment: Antagonist activity at CCR5 in human whole blood assessed as inhibition of MIP-1beta-induced receptor internalization; type: functional, tissue-based
Target sequence in this assay (P51681 whole entry, looked up): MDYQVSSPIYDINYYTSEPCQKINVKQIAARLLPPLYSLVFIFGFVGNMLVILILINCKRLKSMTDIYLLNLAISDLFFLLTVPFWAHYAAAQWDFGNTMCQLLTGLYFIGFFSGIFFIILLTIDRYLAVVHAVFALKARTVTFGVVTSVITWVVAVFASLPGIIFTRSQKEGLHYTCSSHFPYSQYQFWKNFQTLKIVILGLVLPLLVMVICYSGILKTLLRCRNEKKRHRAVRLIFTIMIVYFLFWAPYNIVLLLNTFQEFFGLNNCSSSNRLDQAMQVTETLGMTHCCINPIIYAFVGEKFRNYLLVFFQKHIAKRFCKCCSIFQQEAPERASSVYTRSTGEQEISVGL

[3] = Lipophilicity, log D of the compound at pH 7.4; conditions: buffer
[4] = biological target: T1, C-C chemokine receptor type 5; experiment: Displacement of [125I]MIP-1alpha from human recombinant CCR5 expressed in CHO cells; type: cell-based
Target sequence in this assay (P51681 whole entry): as the sequence (P51681 whole entry, looked up) above

[5] = biological target: Voltage-gated inwardly rectifying potassium channel KCNH2 (Homo sapiens, UniProt Q12809); experiment: Displacement of 3,7-Bis[2-(4-nitro[3,5-3H]phenyl)ethyl]-3,7-diazabicyclo[3.3.1]nonane from human ERG expressed in HEK cells after 3 hrs
[6] = Aqueous solubility of the compound at pH 7.4; type: physicochemical; conditions: buffer
[7] = Clearance in rat at 1 to 2 mg/kg, iv; type: ADME, organism-based; parameters: dose 1-2 mg/kg, route intravenous; conditions: in vivo
[8] = Volume of distribution at steady state in female dog at 1 to 2 mg/kg, iv; type: ADME, organism-based, Canis lupus familiaris; parameters: dose 1-2 mg/kg, route intravenous; conditions: in vivo, read-out: Vdss
[9] = Apparent permeability from basal to apical side of human Caco2 cells at 100 uM; type: ADME, cell-based; conditions: Caco-2
Cytochrome P450 1A1 = biological target: T2, Cytochrome P450 1A1 (Homo sapiens, UniProt P04798); experiment: Inhibition of CYP1A1; type: ADME
T2 sequence (P04798 whole entry): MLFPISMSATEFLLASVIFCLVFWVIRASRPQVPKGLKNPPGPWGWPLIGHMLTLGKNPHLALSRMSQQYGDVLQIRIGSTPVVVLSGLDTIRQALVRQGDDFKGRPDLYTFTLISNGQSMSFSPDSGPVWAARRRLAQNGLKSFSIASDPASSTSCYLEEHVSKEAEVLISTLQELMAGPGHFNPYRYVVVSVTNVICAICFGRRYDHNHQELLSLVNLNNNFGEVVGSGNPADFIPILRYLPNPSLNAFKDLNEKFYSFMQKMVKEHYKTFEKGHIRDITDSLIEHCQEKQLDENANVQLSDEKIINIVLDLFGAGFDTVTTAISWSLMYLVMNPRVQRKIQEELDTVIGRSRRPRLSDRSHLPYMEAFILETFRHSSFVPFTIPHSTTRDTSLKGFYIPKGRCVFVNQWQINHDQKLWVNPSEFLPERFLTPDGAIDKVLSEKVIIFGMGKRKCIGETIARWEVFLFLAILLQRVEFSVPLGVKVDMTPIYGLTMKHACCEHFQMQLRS

[10] = Volume of distribution at steady state in male dog at 1 to 2 mg/kg, iv; type: ADME, organism-based, Canis lupus familiaris; parameters: dose 1-2 mg/kg, route intravenous; conditions: in vivo, read-out: Vdss
[11] = Oral bioavailability in male dog at 2 to 5 mg/kg; type: ADME, organism-based, Canis lupus familiaris; conditions: in vivo
[12] = Half life in rat at 1 to 2 mg/kg, iv; type: ADME, organism-based; parameters: dose 1-2 mg/kg, route intravenous; conditions: in vivo
[13] = Volume of distribution at steady state in rat at 1 to 2 mg/kg, iv; type: ADME, organism-based; parameters: dose 1-2 mg/kg, route intravenous; conditions: in vivo, read-out: Vdss
[14] = Oral bioavailability in female dog at 2 to 5 mg/kg; type: ADME, organism-based, Canis lupus familiaris; conditions: in vivo
[15] = Clearance in female dog at 1 to 2 mg/kg, iv; type: ADME, organism-based, Canis lupus familiaris; parameters: dose 1-2 mg/kg, route intravenous; conditions: in vivo
[16] = Apparent permeability from apical to basal side of human Caco2 cells at 100 uM; type: ADME, cell-based; conditions: Caco-2
[17] = Clearance in male dog at 1 to 2 mg/kg, iv; type: ADME, organism-based, Canis lupus familiaris; parameters: dose 1-2 mg/kg, route intravenous; conditions: in vivo
[18] = Fraction unbound in human plasma; type: ADME, cell-free
Homo sapiens = species: Homo sapiens; experiment: Antiarthritis activity in rheumatoid arthritis patient at 150 mg; type: functional, organism-based
[19] = Apparent permeability from apical to basal side of human Caco2 cells at 10 uM; type: ADME, cell-based; conditions: Caco-2
[20] = Dissociation constant, pKa of the compound; type: physicochemical
Cytochrome P450 2C19 = Cytochrome P450 2C19 (Homo sapiens, UniProt P33261); experiment: Inhibition of CYP2C19; type: ADME
[21] = Half life in male dog at 1 to 2 mg/kg, iv; type: ADME, organism-based, Canis lupus familiaris; parameters: dose 1-2 mg/kg, route intravenous; conditions: in vivo
Cytochrome P450 2D6 = Cytochrome P450 2D6 (Homo sapiens, UniProt P10635); experiment: Inhibition of CYP2D6; type: ADME
Cytochrome P450 2C9 = Cytochrome P450 2C9 (Homo sapiens, UniProt P11712); experiment: Inhibition of CYP2C9; type: ADME
[22] = Apparent permeability from basal to apical side of human Caco2 cells at 10 uM; type: ADME, cell-based; conditions: Caco-2
[23] = Oral bioavailability in rat at 2 to 5 mg/kg; type: ADME, organism-based; conditions: in vivo
[24] = Half life in female dog at 1 to 2 mg/kg, iv; type: ADME, organism-based, Canis lupus familiaris; parameters: dose 1-2 mg/kg, route intravenous; conditions: in vivo
[25] = Plasma protein binding in human; type: ADME, cell-free; conditions: read-out: PPB (converted)
Cytochrome P450 3A4 = Cytochrome P450 3A4 (Homo sapiens, UniProt P08684); experiment: Inhibition of CYP3A4; type: ADME
Cytochrome P450 3A4, sequence (P08684 whole entry): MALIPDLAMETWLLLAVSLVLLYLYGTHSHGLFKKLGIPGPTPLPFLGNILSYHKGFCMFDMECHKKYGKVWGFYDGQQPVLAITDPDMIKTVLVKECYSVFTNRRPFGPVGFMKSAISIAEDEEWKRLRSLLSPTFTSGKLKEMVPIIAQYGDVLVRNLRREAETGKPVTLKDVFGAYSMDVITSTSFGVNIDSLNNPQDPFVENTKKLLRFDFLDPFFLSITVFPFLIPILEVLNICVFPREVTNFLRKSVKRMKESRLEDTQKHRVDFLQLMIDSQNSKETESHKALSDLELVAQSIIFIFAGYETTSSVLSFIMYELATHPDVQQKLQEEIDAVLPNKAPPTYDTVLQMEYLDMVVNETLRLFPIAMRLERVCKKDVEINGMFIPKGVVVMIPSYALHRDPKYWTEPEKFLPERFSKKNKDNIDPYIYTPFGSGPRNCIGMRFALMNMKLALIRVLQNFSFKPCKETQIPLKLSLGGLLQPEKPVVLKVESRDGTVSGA

Voltage-gated inwardly rectifying potassium channel KCNH2, sequence (Q12809 whole entry): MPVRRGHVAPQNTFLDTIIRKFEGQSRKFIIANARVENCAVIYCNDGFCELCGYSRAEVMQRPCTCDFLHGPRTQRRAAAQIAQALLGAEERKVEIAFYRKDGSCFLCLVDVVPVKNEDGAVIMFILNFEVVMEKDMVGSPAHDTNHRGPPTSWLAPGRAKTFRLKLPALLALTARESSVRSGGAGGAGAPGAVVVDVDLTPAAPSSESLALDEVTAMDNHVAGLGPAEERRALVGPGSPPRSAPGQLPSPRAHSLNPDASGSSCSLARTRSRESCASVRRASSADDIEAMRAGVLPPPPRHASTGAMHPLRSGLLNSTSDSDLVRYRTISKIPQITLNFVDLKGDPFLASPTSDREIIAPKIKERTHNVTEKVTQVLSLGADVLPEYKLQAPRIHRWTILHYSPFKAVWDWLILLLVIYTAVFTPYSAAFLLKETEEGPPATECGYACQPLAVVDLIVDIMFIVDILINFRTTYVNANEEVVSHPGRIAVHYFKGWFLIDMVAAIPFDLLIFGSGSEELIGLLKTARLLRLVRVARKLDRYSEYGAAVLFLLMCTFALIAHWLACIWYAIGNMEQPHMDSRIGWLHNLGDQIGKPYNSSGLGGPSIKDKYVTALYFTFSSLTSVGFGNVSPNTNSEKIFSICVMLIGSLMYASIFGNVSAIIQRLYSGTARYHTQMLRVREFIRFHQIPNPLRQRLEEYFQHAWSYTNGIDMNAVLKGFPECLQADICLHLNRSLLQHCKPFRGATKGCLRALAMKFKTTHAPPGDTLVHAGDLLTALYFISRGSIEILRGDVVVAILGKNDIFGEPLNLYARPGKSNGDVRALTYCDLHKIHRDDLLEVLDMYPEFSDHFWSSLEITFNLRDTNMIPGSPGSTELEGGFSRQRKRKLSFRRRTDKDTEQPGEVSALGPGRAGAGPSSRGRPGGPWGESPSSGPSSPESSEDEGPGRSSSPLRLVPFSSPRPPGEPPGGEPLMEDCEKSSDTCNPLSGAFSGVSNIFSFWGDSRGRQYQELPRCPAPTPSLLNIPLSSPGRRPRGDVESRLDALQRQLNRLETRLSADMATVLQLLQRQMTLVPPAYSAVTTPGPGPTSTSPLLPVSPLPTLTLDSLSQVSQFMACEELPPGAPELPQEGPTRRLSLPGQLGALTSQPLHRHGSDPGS
Cytochrome P450 2D6, sequence (P10635 whole entry): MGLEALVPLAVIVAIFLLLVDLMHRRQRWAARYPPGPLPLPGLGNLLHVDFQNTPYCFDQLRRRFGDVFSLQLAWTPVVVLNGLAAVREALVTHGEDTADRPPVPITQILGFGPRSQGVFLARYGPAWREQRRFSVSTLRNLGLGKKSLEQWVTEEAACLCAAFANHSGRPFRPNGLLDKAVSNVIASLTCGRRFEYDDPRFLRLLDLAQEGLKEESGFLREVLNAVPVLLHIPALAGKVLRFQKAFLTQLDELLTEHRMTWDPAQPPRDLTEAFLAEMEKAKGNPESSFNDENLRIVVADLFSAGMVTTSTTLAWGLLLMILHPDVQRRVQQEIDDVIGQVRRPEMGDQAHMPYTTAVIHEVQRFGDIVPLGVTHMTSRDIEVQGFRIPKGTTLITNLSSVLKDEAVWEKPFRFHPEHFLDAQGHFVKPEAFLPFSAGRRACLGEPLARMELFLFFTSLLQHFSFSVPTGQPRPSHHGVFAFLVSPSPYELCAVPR
Cytochrome P450 2C9, sequence (P11712 whole entry): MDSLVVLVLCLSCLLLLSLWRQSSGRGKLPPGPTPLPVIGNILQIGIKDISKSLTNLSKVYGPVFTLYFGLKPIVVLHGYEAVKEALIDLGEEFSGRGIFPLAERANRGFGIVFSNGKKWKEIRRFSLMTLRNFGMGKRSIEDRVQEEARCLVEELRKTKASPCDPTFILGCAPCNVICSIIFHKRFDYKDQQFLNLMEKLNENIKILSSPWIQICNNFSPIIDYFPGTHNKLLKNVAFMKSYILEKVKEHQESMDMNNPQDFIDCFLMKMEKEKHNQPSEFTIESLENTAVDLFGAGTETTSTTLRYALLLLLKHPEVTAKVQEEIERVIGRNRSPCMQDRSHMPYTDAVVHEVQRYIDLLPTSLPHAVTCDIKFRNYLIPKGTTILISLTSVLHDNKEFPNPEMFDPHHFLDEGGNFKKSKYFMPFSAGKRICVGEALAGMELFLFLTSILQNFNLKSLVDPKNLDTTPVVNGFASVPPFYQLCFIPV
Cytochrome P450 2C19, sequence (P33261 whole entry): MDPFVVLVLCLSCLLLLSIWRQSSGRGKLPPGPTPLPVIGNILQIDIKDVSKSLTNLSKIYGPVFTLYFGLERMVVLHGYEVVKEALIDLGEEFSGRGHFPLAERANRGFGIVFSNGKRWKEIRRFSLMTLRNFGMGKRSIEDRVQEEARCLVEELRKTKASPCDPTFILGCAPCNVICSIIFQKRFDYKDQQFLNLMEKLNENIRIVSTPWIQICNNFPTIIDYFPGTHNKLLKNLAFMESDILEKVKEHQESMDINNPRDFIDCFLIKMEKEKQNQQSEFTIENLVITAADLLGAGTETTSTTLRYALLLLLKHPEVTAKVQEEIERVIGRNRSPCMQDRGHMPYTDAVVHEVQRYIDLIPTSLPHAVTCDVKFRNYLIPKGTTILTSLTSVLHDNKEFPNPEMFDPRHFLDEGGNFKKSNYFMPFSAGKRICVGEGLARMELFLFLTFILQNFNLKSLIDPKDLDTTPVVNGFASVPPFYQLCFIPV

Compound: CCN(C(=O)Cc1ccc(S(C)(=O)=O)cc1)C1CCN(CCC(c2ccccc2)N2CCN(C)CC2)CC1 (racemic)
- logD [3]: 0.9

Compound: CCN(C(=O)Cc1ccc(S(C)(=O)=O)cc1)C1CCN(CCC(c2ccccc2)N2CCN(c3ccccc3)CC2)CC1 (racemic)
- microsomal CLint [1]: 26 µL/min/mg
- IC50 [4]: 5 nM
- logD [3]: 2.7
- IC50 [5]: 13000 nM

Compound: CCN(C(=O)Cc1ccc(S(C)(=O)=O)cc1)C1CCN(CCC(c2ccccc2)C2CCN(Cc3ccccc3)CC2)CC1 (racemic)
- microsomal CLint [1]: > 150 µL/min/mg
- IC50 [4]: 8.9 nM

Compound: CCN(C(=O)Cc1ccc(S(C)(=O)=O)cc1)C1CCN(CCC(c2ccccc2)C2CCN(C(C)=O)CC2)CC1 (racemic)
- IC50 [4]: 37 nM
- logD [3]: 1.4

Compound: CCN(C(=O)Cc1ccc(S(C)(=O)=O)cc1)C1CCN(CCC(c2ccccc2)C2CCN(S(=O)(=O)CC)CC2)CC1 (racemic)
- microsomal CLint [1]: 61 µL/min/mg
- IC50 [4]: 2.4 nM
- logD [3]: 1.6

Compound: CCN(C(=O)Cc1ccc(S(C)(=O)=O)cc1)C1CCN(CC[C@@H](c2cc(F)cc(F)c2)C2CCN(S(C)(=O)=O)CC2)CC1 [AZD5672]
- solubility [6]: 2700 µM (≈ 1730 µg/mL)
- clearance [7]: 38 mL/min/kg
- microsomal CLint [1]: 18 µL/min/mg
- Vd [8]: 5.8 L/kg
- Papp B→A at 100 µM [9]: 11 ×10⁻⁶ cm/s
- IC50 (Cytochrome P450 1A1): > 50000 nM
- Vd [10]: 4.5 L/kg
- bioavailability [11]: 46%
- half-life [12]: 2.1 h
- Vd [13]: 5 L/kg
- A2 [2]: 0.76 nM
- bioavailability [14]: 51%
- clearance [15]: 22 mL/min/kg
- Papp A→B at 100 µM [16]: 1.4 ×10⁻⁶ cm/s
- clearance [17]: 15 mL/min/kg
- fraction unbound [18]: 0.08
- Activity (Homo sapiens): inactive
- Papp A→B at 10 µM [19]: 0.7 ×10⁻⁶ cm/s
- pKa [20]: 8.4
- IC50 (Cytochrome P450 2C19): > 50000 nM
- IC50 [4]: 0.26 nM
- half-life [21]: 3.9 h
- logD [3]: 1.5
- IC50 (Cytochrome P450 2D6): 23000 nM
- IC50 (Cytochrome P450 2C9): > 50000 nM
- Papp B→A at 10 µM [22]: 9.2 ×10⁻⁶ cm/s
- bioavailability [23]: 41%
- half-life [24]: 3.8 h
- fraction unbound [25]: 0.08
- IC50 (Cytochrome P450 3A4): 9000 nM

Further lines, with some results ahead:

- microsomal CLint [1]: 8 µL/min/mg
- A2 [2]: 1.1 nM
Compound: CCN(C(=O)Cc1ccc(S(C)(=O)=O)cc1)C1CCN(CC[C@H](c2ccc(S(C)(=O)=O)cc2)c2cc(F)cc(F)c2)CC1

- microsomal CLint [1]: 22 µL/min/mg
- IC50 [4]: 3.1 nM
- logD [3]: 3.2
Compound: CCN(C(=O)Cc1ccc(S(C)(=O)=O)cc1)C1CCN(CCC(c2ccccc2)N2CCN(c3cccc(F)c3)CC2)CC1 (racemic)
- IC50 [5]: 3200 nM

- IC50 [4]: 229 nM
- logD [3]: 0.9
Compound: CCN(C(=O)Cc1ccc(S(C)(=O)=O)cc1)C1CCN(CCC(c2ccccc2)N2CCN(C(C)=O)CC2)CC1 (racemic)

- microsomal CLint [1]: < 3 µL/min/mg
- IC50 [4]: 39 nM
- logD [3]: 0.8
Compound: CCN(C(=O)Cc1ccc(S(C)(=O)=O)cc1)C1CCN(CCC(c2ccccc2)N2CCN(S(C)(=O)=O)CC2)CC1 (racemic)

- microsomal CLint [1]: 52 µL/min/mg
- IC50 [4]: 15 nM
- logD [3]: 1
Compound: CCN(C(=O)Cc1ccc(S(C)(=O)=O)cc1)C1CCN(CCC(c2ccccc2)N2CCN(S(=O)(=O)CC)CC2)CC1 (racemic)

- IC50 [4]: 339 nM
- logD [3]: 2
Compound: CCN(C(=O)Cc1ccc(S(C)(=O)=O)cc1)C1CCN(CCC(c2ccccc2)N2CCC(C)CC2)CC1 (racemic)

- IC50 [4]: 162 nM
- logD [3]: 3.7
Compound: CCN(C(=O)Cc1ccc(S(C)(=O)=O)cc1)C1CCN(CCC(c2ccccc2)N2CCC(Cc3ccccc3)CC2)CC1 (racemic)

- microsomal CLint [1]: 21 µL/min/mg
- IC50 [4]: 83 nM
- logD [3]: 0.9
Compound: CCN(C(=O)Cc1ccc(S(C)(=O)=O)cc1)C1CCN(CCC(c2ccccc2)N2CCC(C(C)=O)CC2)CC1 (racemic)

- IC50 [4]: 126 nM
- logD [3]: 1
Compound: CCN(C(=O)Cc1ccc(S(C)(=O)=O)cc1)C1CCN(CCC(c2ccccc2)C2CCN(C)CC2)CC1 (racemic)
